Measurements from patent US12435080B2, “sGC stimulators” (Tisento Therapeutics Inc., priority 2016, dated 2025).

These compounds were tested against T1, sGC enzyme (Homo sapiens, UniProt Q02108+Q02153) (assay: cGMP GloSensor cell-based assay, 384-well format). Settings: HEK293 cells expressing GloSensor 40F cGMP; 10 μM DETA-NONOate; normalized to 30 μM Compound Y; compounds in Table IA; read-out: Glo-sensor AbsEC50.
T1 construct: incorporated into these cells detect cGMP formed by the compounds stimulating the sGC enzyme; host or cells: HEK293 cells stably expressing GloSensor 40F cGMP biosensor
T1 sequence (Q02153 1-619): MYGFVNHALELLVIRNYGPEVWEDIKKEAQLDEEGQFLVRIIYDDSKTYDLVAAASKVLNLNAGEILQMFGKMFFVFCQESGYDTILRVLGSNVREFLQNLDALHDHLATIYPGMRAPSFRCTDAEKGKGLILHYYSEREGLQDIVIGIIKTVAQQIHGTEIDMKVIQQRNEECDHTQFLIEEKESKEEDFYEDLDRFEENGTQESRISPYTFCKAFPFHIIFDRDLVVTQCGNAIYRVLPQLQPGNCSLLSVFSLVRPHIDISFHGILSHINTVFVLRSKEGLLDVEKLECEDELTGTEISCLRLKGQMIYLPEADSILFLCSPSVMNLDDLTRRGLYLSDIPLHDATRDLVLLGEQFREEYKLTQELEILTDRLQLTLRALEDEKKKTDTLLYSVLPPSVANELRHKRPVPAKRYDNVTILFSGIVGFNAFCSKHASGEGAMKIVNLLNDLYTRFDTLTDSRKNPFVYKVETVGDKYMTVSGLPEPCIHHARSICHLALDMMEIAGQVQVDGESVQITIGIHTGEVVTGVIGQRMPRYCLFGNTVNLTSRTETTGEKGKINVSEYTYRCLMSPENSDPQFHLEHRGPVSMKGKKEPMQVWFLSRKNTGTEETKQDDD
T1 sequence (Q02108 1-690): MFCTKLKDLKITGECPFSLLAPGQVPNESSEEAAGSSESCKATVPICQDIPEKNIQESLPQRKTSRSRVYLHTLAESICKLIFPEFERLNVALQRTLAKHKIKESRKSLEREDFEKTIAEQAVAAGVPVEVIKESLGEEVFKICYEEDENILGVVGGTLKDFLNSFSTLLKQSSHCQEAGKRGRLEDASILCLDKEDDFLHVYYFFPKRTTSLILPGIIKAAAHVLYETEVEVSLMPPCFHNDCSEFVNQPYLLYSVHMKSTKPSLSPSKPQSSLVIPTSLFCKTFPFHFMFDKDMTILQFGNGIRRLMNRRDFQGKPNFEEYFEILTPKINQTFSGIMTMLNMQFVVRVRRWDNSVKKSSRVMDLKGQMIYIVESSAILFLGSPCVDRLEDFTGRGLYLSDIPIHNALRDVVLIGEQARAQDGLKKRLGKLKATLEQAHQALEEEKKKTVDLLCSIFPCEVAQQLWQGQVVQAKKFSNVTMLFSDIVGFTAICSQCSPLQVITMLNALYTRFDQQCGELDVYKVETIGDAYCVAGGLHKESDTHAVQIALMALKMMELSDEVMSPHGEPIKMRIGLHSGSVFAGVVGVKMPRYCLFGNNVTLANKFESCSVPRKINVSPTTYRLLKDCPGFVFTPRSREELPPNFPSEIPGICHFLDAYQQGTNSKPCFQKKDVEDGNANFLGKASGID
Source text: Human embryonic kidney cells (HEK293) cells expressing GloSensor™ 40F cGMP (Part No: CS182801, Promega) were used to evaluate the activity of test compounds. The luminescent biosensors (engineered luciferase) that were incorporated into these cells detect cGMP formed by the compounds stimulating the sGC enzyme and emit luminescence.
cGMP GloSensor cells were maintained in Dulbecco's Modification of Eagle's Medium (DMEM) supplemented with fetal bovine serum (FBS, 10% final) and hygromycine (200 ug/ml). […] Cells were incubated overnight at 37° C. in a humidified chamber with 5% CO2. The next day, medium was removed and cells were replaced with 40 ul/well of GloSensor™, 2 mM (Promega Cat No E1291). Cells were treated for 90 minutes at 25° C. to allow the substrate to equilibrate in the cells. […] For endpoint SAR screening, data were collected after 55 min incubation at room temperature.
Data were fit using a 4-parameter fit (log(agonist) vs. response—variable slope) using GraphPad Prism Software v.5. n=2 for all compounds. […] Compounds failing to elicit a minimum response of 50% are reported as >30 μM or ND.

Row | EC50 | SMILES
1 | 100 to 1000 nM | Fc1n[nH]c(-c2nn(Cc3ccccc3F)c3ncccc23)n1 [Compound I-45, 3-(3-fluoro-1H-1,2,4-triazol-5-yl)-1-(2-fluorobenzyl)-1H-pyrazolo[3,4-b]pyridine]
2 | < 100 nM | Cc1ncc(Cn2nc(-c3nc(C(F)(F)F)n[nH]3)c3ccc(F)cc32)cn1 [Compound I-61, 6-Fluoro-1-((2-methylpyrimidin-5-yl)methyl)-3-(3-(trifluoromethyl)-1H-1,2,4-triazol-5-yl)-1H-indazole]
3 | 100 to 1000 nM | Nc1n[nH]c(-c2nn(Cc3ccccc3F)c3ncccc23)n1 [Compound I-84, 5-(1-(2-fluorobenzyl)-1H-pyrazolo[3,4-b]pyridin-3-yl)-1H-1,2,4-triazol-3-amine]
4 | > 1000 nM | Cc1ncc(Cn2nc(-c3nc(C(F)(F)F)n[nH]3)c3ncccc32)cn1 [Compound I-38]
5 | > 1000 nM | FC(F)c1n[nH]c(-n2nc(Cc3ccccc3)c3ncccc32)n1 [Compound I-129]
6 | 100 to 1000 nM | Fc1cc(F)cc(Cc2nn(-c3nc(C(F)F)n[nH]3)c3cccnc23)c1 [Compound I-123, 3-(3,5-Difluorobenzyl)-1-(3-(difluoromethyl)-1H-1,2,4-triazol-5-yl)-1H-pyrazolo[4,3-b]pyridine]
7 | < 100 nM | Fc1ccccc1Cn1nc(-c2nc(C3CC3)n[nH]2)c2cccnc21 [Compound I-68, 3-(3-Cyclopropyl-1H-1,2,4-triazol-5-yl)-1-(2-fluorobenzyl)-1H-pyrazolo[3,4-b]pyridine]
8 | 100 to 1000 nM | Fc1ccccc1Cn1nc(-c2nc(C(F)(F)F)n[nH]2)c2ccnnc21 [Compound I-100, 1-(2-Fluorobenzyl)-3-(3-(trifluoromethyl)-1H-1,2,4-triazol-5-yl)-1H-pyrazolo[3,4-c]pyridazine]
9 | 100 to 1000 nM | O=C(N1CC(c2n[nH]c(-c3nn(Cc4ccccc4F)c4ncccc34)n2)C1)C(F)(F)F [Compound I-75]
10 | 100 to 1000 nM | CC(=O)NCc1n[nH]c(-c2nn(Cc3ccccc3F)c3ncccc23)n1 [Compound I-124, N-((5-(1-(2-fluorobenzyl)-1H-pyrazolo[3,4-b]pyridin-3-yl)-1H-1,2,4-triazol-3-yl)methyl)acetamide]
11 | 100 to 1000 nM | COc1n[nH]c(-c2nn(Cc3ccccc3F)c3ncccc23)n1 [Compound I-82, 1-(2-fluorobenzyl)-3-(3-methoxy-1H-1,2,4-triazol-5-yl)-1H-pyrazolo[3,4-b]pyridine]
12 | 100 to 1000 nM | C=C(C)c1n[nH]c(-c2nn(Cc3ccccc3F)c3ncccc23)n1 [Compound I-55]
13 | 100 to 1000 nM | Fc1ccccc1Cn1nc(-c2nc(C3CN(CC(F)(F)F)C3)n[nH]2)c2cccnc21 [Compound I-95, 1-(2-Fluorobenzyl)-3-(3-(1-(2,2,2-trifluoroethyl)azetidin-3-yl)-1H-1,2,4-triazol-5-yl)-1H-pyrazolo[3,4-b]pyridine]
14 | 100 to 1000 nM | CN(C)c1n[nH]c(-c2nn(Cc3ccccc3F)c3ncccc23)n1 [Compound I-90]

Same assay, conditions: HEK293 cells expressing GloSensor 40F cGMP; 10 μM DETA-NONOate; normalized to 30 μM Compound Y; compounds in Table IB; read-out: Glo-sensor Abs EC50

Row | EC50 | SMILES
15 | > 1000 nM | Cc1ncc(Cc2nc(-c3nc(C(F)(F)F)n[nH]3)n3cc(Cl)cc(F)c23)cn1 [Compound I-27, 6-Chloro-8-fluoro-1-((2-methylpyrimidin-5-yl)methyl)-3-(3-(trifluoromethyl)-1H-1,2,4-triazol-5-yl)imidazo[1,5-a]pyridine]
16 | 100 to 1000 nM | Cc1ncc(Cc2nc(-c3nc(C(F)(F)F)n[nH]3)n3cc(F)ccc23)cn1 [Compound I-23, 6-Fluoro-1-((2-methylpyrimidin-5-yl)methyl)-3-(3-(trifluoromethyl)-1H-1,2,4-triazol-5-yl)imidazo[1,5-a]pyridine pyridine]
17 | < 100 nM | Fc1cc(F)c2c(Cc3cncnc3)nc(-c3nc(C(F)(F)F)n[nH]3)n2c1 [Compound I-28, 6,8-Difluoro-1-(pyrimidin-5-ylmethyl)-3-(3-(trifluoromethyl)-1H-1,2,4-triazol-5-yl)imidazo[1,5-a]pyridine]
18 | > 1000 nM | Fc1ccccc1Cc1nc(-c2nc(C(F)(F)F)n[nH]2)n2ccncc12 [Compound I-44, 1-(2-Fluorobenzyl)-3-(3-(trifluoromethyl)-1H-1,2,4-triazol-5-yl)imidazo[1,5-a]pyrazine]
